Measurements published in patent US5670358A, “Method for inhibiting chymopapain and papain enzyme activity with polysaccharides of animal origin” (Baxter International Inc., priority 1995, dated 1997).

Assays:
papain = test: Papain protease activity, hydrolysis of BAPNA synthetic substrate (absorbance 415 nm); assay type: biochemical, papaya; settings: 37° C., Tricine buffer 50 mM, 10 mM CaCl2
Method: (§1) The invention will be better understood by reference to the following nonlimiting examples which illustrate the use of the animal-derived polysaccharide materials of the present invention in inhibiting various enzymes. In these examples the activities of chymopapain and papain were determined by assay using BAPNA, N-benzoyl-L-arginine-p-nitroanilide synthetic substrate by measuring the increase in absorbance at 415 nm. The activity of clostripain was determined by assay using BAEE, N-benzoyl-L-arginine ethyl ester synthetic substrate by measuring the increase in absorbance at […]. The activity of trypsin was determined by assay using BAPNA.
(§2) Protease activity was determined by measuring the reaction rates for the hydrolysis of synthetic substrates for the enzymes trypsin, chymopapain, papain, and clostripain. The increase in absorbance at 415 nm was used for the measurement of the reaction rates for trypsin, chymopapain and papain upon a BAPNA substrate. The increase in absorbance at 253 nm was used for the measurement of the reaction rates for clostripain. Trypsin, chymopapain and papain activities were determined at 37° C. in Tricine buffer, 50 mM, containing 10 mM CaCl2. Clodytipain activity was determined at room temperature. Chymopapain, papain, and clostripain were activated with L-cysteine or dithiothreitol reducing agent prior to assay. Concentration of reducing agent in the substrate solution was maintained at 5 mM by addition of reducing agent to the substrate solution.
The percentage inhibition was obtained from the ratio of enzyme activity in the presence of inhibitor to the activity of a control to which no inhibitor was added.

chymopapain = test: Chymopapain protease activity, hydrolysis of BAPNA synthetic substrate (absorbance 415 nm); assay type: biochemical, papaya; settings: for Chymopapain % Inhibited: 37° C., Tricine buffer 50 mM, 10 mM CaCl2
Method: as §1, §2
(§3) Glycogen was dissolved in the assay buffer to a final concentration of 1%. The percentage inhibition was obtained from the ratio of enzyme activity in the presence of inhibitor to the activity of a control to which no inhibitor was added.

trypsin = test: Trypsin protease activity, hydrolysis of BAPNA synthetic substrate (absorbance 415 nm); assay type: biochemical; settings: for Trypsin % Inhibited: 37° C., Tricine buffer 50 mM, 10 mM CaCl2
Method: as §1, §2, §3

clostripain = test: Clostripain protease activity, hydrolysis of BAEE synthetic substrate (absorbance 253 nm); assay type: biochemical; settings: for Clostripain % Inhibited: room temperature
Method: as §1, §2, §3

[1] = inhibitor concentration 0.5%, listed as hyaluronic acid
[2] = inhibitor concentration 1%, listed as glycogen

Substance	Papain % Inhibited (papain; inhibitor concentration 0.5%)	Chymopapain % Inhibited (chymopapain; inhibitor concentration 0.5%)	effectiveness in inhibiting trypsin relative to chymopapain and papain (trypsin; inhibitor concentration 0.5%)	Trypsin % Inhibited (trypsin; inhibitor concentration 0.5%)	effectiveness in inhibiting clostripain relative to chymopapain and papain (clostripain; inhibitor concentration 0.5%)	Clostripain % Inhibited (clostripain; inhibitor concentration 0.5%)	Papain % Inhibited (papain; [1])	Chymopapain % Inhibited (chymopapain; [1])	Trypsin % Inhibited (trypsin; [1])	Clostripain % Inhibited (clostripain; [1])	Papain % Inhibited (papain; inhibitor concentration 1%)	effectiveness as inhibitor of chymopapain and papain activity relative to trypsin activity (chymopapain; inhibitor concentration 1%)	Chymopapain % Inhibited (chymopapain; inhibitor concentration 1%)	Trypsin % Inhibited (trypsin; inhibitor concentration 1%)	Trypsin % Inhibited (trypsin; [2])	Clostripain % Inhibited (clostripain; inhibitor concentration 1%)	Clostripain % Inhibited (clostripain; [2])
Desulfated heparin	9.8%	8.8%	less than one-half as effective	4.1%	about one-tenth as effective	0.8%											
Hyaluronic acid	35.8%	34.2%		0%		0%	effective	effective	no inhibiting effect	no inhibiting effect							
Glycogen											12.5%	10-20 times	17%	1.1%	about 1%	0%	no inhibiting effect
